The source of these data is US20260144259A1, “CRYSTAL OF 2-(5-CYCLOPROPYL-3-(ETHYLSULFONYL)PYRIDIN-2-YL)-5-((TRIFLUOROMETHYL)SULFINYL)BENZO[D]OXAZOLE” (SUMITOMO CHEMICAL COMPANY, LIMITED, priority 2022, published 2026).

Holding throughout (format): in vivo
Test [1] relates to common cutworms (Spodoptera litura). Nature of the test: Test method 2: sprayed cabbage leaves fed to common cutworms. The note with it: 120 h, cabbage sprayed 20 mL/seedling, second instar larvae, after 5 days, 25° C., read-out: mortality of insects. The procedure: (§1) Next, an efficacy of the Type 1 crystal of Compound (1) on controlling harmful arthropods is shown by Test examples. The following tests were conducted at 25° C.
(§2) Test compound is made to a formulation according to a similar method to that described in the Formulation example 1, and thereto is added water containing 0.03 v/v % of Shindain (registered trademark) to prepare a dilution containing a prescribed concentration of the test compound.
Cabbage (Brassicae oleracea) seedling (on the developmental stage of the second to third true leaf) is planted in a cup, and the dilutions are sprayed onto the seedling at a ratio of 20 mL/seedling. Thereafter, the stem and leaf thereof are cut out and then are placed into a cup that is lined with a filter paper. Five (5) common cutworms (Spodoptera litura) at the second instar larval stage are released into the cup. After 5 days, the number of the surviving insects is counted, and the mortality of insects is calculated by the following equation.

Test [2] concerns common house mosquito (Culex pipiens pallens). Put plainly: Test method 10: sugar-water filter paper test on common house mosquito female adults. The note with it: 0.8 ppm, 0.7 ml dilution in sugar water on filter paper, after 2 days, 25° C. The procedure:
as §1
(§3) Test compound is made to a formulation according to a similar method to that described in the Formulation example 1, and thereto is added 1.8 g of sucrose, followed by adding 3% sugar water to prepare a dilution containing a prescribed concentration of the test compound.
A filter paper having a diameter of 5.5 cm is spread on the bottom of the cup, and then 0.7 ml of the dilutions are added dropwise to the filter paper, five (5) common house mosquito (Culex pipiens pallens) female adults are released into the cup, and the cup is covered with the lid. After 2 days, the number of the dead and distressed individuals of […] female adults are counted, and the ratio of distressed and dead insects (%) is calculated by the following equation.
Here the dead individual is one whose behavior has completely stopped, and a distressed individual is one that cannot fly and also cannot walk.

For test [3], the system named is common house mosquitos (Culex pipiens pallens). Put plainly: Test method 4: common house mosquito larvae released into dilution. The note with it: 24 h, last instar larvae released into dilution, after 1 day, 25° C., read-out: mortality of insects. The procedure: as §1
Test compound is made to a formulation according to a similar method to that described in the Formulation example 1, and thereto is added water to prepare a dilution containing a prescribed concentration of the test compound.
Into the dilution, 30 common house mosquitos (Culex pipiens pallens) at the last instar larval stage are released, and after 1 day, the state of the common house mosquito larvae is examined, and the mortality of insects is calculated by the following equation.

The test system of test [4] is German cockroach (Blattella germanica). Put plainly: Test method 9: sugar-water filter paper test on German cockroach male adults. The note with it: 0.2 ppm, 0.7 ml dilution in sugar water on filter paper, after 5 days, 25° C. The procedure: as §1, §3
A filter paper having a diameter of 5.5 cm is spread on the bottom of the cup, and then 0.7 ml of the dilutions are added dropwise to the filter paper, five (5) German cockroach (Blattella germanica) male adults are released into the cup, and the cup is covered with the lid. After 5 days, the number of the dead and distressed individuals of German cockroach male adults are counted, and the ratio of distressed and dead insects (%) is calculated by the following equation.
(§4) Here the dead individual is one whose behavior has completely stopped, and a distressed individual is one that cannot stand up when placed on its back and also cannot walk.

The subject of test [5] is cotton aphids (Aphis gossypii). Put plainly: Test method 1: spray on cucumber seedling infested with cotton aphids. The following applies: 500 ppm; sprayed 10 mL/seedling on cucumber one day after release of about 30 aphids (all stages); after 5 days; 25° C. The procedure:
Next, an efficacy of the Type 1 crystal of Compound (1) on controlling harmful arthropods is shown by Test examples. The following tests were conducted at 25° C. Test compound is made to a formulation according to a similar method to that described in the Formulation example 1, and thereto is added water containing 0.03 v/v % of Shindain (registered trademark) to prepare a dilution containing a prescribed concentration of the test compound. Cucumber (Cucumis sativus) seedling (on the developmental stage of the second true leaf) is planted in a cup, and approximately 30 cotton aphids (Aphis gossypii) (all stages of life) are released onto the seedling. After one day, the dilutions are sprayed onto the seedling at a ratio of 10 mL/seedling. After 5 days, the number of the surviving insects is examined and the controlling value is calculated by the following equation. […]

The test system of test [6] is diamondback moths (Plutella xylostella). Nature of the test: Test method 3: sprayed cabbage leaves fed to diamondback moths. The note with it: 120 h, cabbage sprayed 20 mL/seedling, second instar larvae, after 5 days, 25° C., read-out: mortality of insects. As to the method:
as §1, §2
Cabbage (Brassicae oleracea) seedling (on the developmental stage of the second to third true leaf) is planted in a cup, and the dilutions are sprayed onto the seedling at a ratio of 20 mL/seedling. Thereafter, the stem and leaf thereof are cut out and then are placed into a cup that is lined with a filter paper. Five (5) diamondback moths (Plutella xylostella) at the second instar larval stage are released into the cup. After 5 days, the number of the surviving insects is counted, and the mortality of insects is calculated by the following equation.

Test [7] concerns cotton aphids (Aphis gossypii). Nature of the test: Test method 6: sprayed cucumber seedling, artificial rainfall, then cotton aphids released. The following applies: 0.5 ppm; cucumber sprayed 10 mL/seedling, dried, artificial rain 10 mm/hr for 1 hour; female adults released after one day; after 5 days; 25° C. The procedure:
Next, an efficacy of the Type 1 crystal of Compound (1) on controlling harmful arthropods is shown by Test examples. The following tests were conducted at 25° C. Test compound is made to a formulation according to a similar method to that described in the Formulation example 1, and thereto is added water containing 0.02 v/v % of Shindain (registered trademark) to prepare a dilution containing a prescribed concentration of the test compound. Only the second true leaves of Cucumber (Cucumis sativus) seedling (on the developmental stage of the third true leaf) are retained, and the other leaves are cut off, and the dilutions are sprayed onto the seedling at a ratio of 10 mL/seedling. After the dilution, which is treated, is dried, rain is given to the cucumber seedling with an artificial rainfall device at 10 mm/hr for 1 hour. After one day, 10 cotton aphids (Aphis gossypii) female adults are released onto the seedling. After 5 days, the number of the surviving insects is examined and the controlling value is calculated by the following equation. […]

Test [8] has as its system pharaoh ant (Monomorium pharaonis). Nature of the test: Test method 8: sugar-water filter paper test on pharaoh ant workers. The note with it: 0.05 ppm, 0.7 ml dilution in sugar water on filter paper, after 2 days, 25° C. The procedure: as §1, §3
A filter paper having a diameter of 5.5 cm is spread on the bottom of the cup, and then 0.7 ml of the dilutions are added dropwise to the filter paper, and ten (10) pharaoh ant (Monomorium pharaonis) workers are released into the cup, and the cup is covered with the lid. After 2 days, the number of the dead and distressed individuals of pharaoh ant workers are counted, and the ratio of distressed and dead insects (%) is calculated by the following equation.
as §4

Test [9] has as its system Argentine ant (Linepithema humile). Put plainly: Test method 7: sugar-water filter paper test on Argentine ant workers. The following applies: 0.2 ppm, 0.7 ml dilution in sugar water on filter paper, after 6 days, 25° C. As to the method:
as §1, §3
A filter paper having a diameter of 5.5 cm is spread on the bottom of the cup, and then 0.7 ml of the dilutions are added dropwise to the filter paper, and ten (10) Argentine ant (Linepithema humile) workers are released into the cup, and the cup is covered with the lid. After 6 days, the number of the dead and distressed individuals of Argentine ant workers are counted, and the ratio of distressed and dead insects (%) is calculated by the following equation.
as §4

Test [10] has as its system brown planthoppers (Nilaparvata lugens). Put plainly: Test method 5: sprayed rice seedling with brown planthoppers. The following applies: 144 h, rice sprayed 10 mL/seedling, third instar larvae, after 6 days, 25° C., read-out: mortality of insects. As to the method: as §1, §2
Rice (Oryza sativa) seedling (on the developmental stage of the second leaf) is planted in a cup, and the dilutions are sprayed onto the seedling at a ratio of 10 mL/seedling. Thereafter, twenty (20) brown planthoppers (Nilaparvata lugens) at the third instar larval stage are released into the cup. After 6 days, the number of the surviving insects is counted, and the mortality of insects is calculated by the following equation.

For orientation: mortality means the percentage killed.

Some results are limits rather than exact numbers.

Take `CCS(=O)(=O)c1cc(C2CC2)cnc1-c1nc2cc([S+]([O-])C(F)(F)F)ccc2o1` (stereo not drawn) [Type 1 crystal of Compound (1), 2-(5-cyclopropyl-3-(ethylsulfonyl)pyridin-2-yl)-5-((trifluoromethyl)sulfinyl)benzo[d]oxazole]: the mortality at 500 ppm was at least 80% in [1], at least 80% in test [6] and at least 90% in test [10]. In addition, the “ratio of distressed and dead insects” value in [2] was 100%; in test [4], 100%; in [8] it was 100%; in test [9], 95%. Further, the mortality at 3.5 ppm in test [3] was at least 90%. For the same compound, the controlling value in test [5] is at least 90%; in [7], 55.7%.

As to `CCS(=O)(=O)c1cc(C2CC2)cnc1-c1nc2cc([S+]([O-])C(F)(F)F)ccc2o1` (stereo not drawn) [amorphous of Compound (1), 2-(5-cyclopropyl-3-(ethylsulfonyl)pyridin-2-yl)-5-((trifluoromethyl)sulfinyl)benzo[d]oxazole], the “ratio of distressed and dead insects” value in test [2] stood at 20%; in test [4] it was 0%; in test [8], 15%; in test [9] it was 30%. Further, in test [7], the controlling value was determined as 32.4%.
